Experimental data: US5079357A, “Derivatives of penem” (Daiichi Pharmaceutical Co., Ltd., priority 1985, dated 1992)
Converted amounts (≈) assume the structure as drawn.

Assays:
Test in all cases: antibacterial activity (MIC), broth dilution method
Type in all cases: cell-based
[1] = system: E. coli, NIHJ; conditions: Escherichia coli, Muller-Hinton broth, 10^5 /ml bacteria, 37° C., 18 hours, read-out: Minimal Inhibitory Concentration (MIC)
Procedure: (§1) On some of the compounds according to the present invention, the antibacterial activity was determined by broth dilution method in Muller-Hinton broth in which 10^5 /ml of bacteria were seaded and incubated at 37° C. for 18 hours.

[2] = system: Ent. cloacae, 03400; conditions: Enterobacter cloacae, Muller-Hinton broth, 10^5 /ml bacteria, 37° C., 18 hours, read-out: Minimal Inhibitory Concentration (MIC)
Procedure: as §1

[3] = system: Ps. aeruginosa, 32233; conditions: Pseudomonas aeruginosa, Muller-Hinton broth, 10^5 /ml bacteria, 37° C., 18 hours, read-out: Minimal Inhibitory Concentration (MIC)
Procedure: as §1

[4] = system: S. aureus, 209P; conditions: Staphylococcus aureus, Muller-Hinton broth, 10^5 /ml bacteria, 37° C., 18 hours, read-out: Minimal Inhibitory Concentration (MIC)
Procedure: as §1

[5] = system: Ser. Marcescens, 10104; conditions: Serratia marcescens, Muller-Hinton broth, 10^5 /ml bacteria, 37° C., 18 hours, read-out: Minimal Inhibitory Concentration (MIC)
Procedure: as §1

MIC [1] [µg/mL]	MIC [2] [µg/mL]	MIC [3] [µg/mL]	MIC [4] [µg/mL]	MIC [5] [µg/mL]	Structure (SMILES)
0.39 (≈ 1.17 µM)	0.78 (≈ 2.33 µM)	100 (≈ 299 µM)	0.1 (≈ 0.299 µM)	3.13 (≈ 9.36 µM)	CC(O)C1C(=O)N2C(C(=O)O)=C(SCCOC(N)=O)SC12 (stereo not drawn) [Sch 34343, reference compound]
≤ 0.05	0.39 (≈ 1.1 µM)	25 (≈ 70.5 µM)	≤ 0.05	0.78 (≈ 2.2 µM)	CC(O)C1C(=O)N2C(C(=O)O)=C(SC3Cc4nncn4C3)SC12 [A, (5R, 6S, 8R)-6-(1-hydroxyethyl)-2-[(6,7-dihydro-5H-pyrrolo[(2,1-c]-1,2,4-triazol-6-yl)thio]-2-penem-3-carboxylic acid]
0.1 (≈ 0.272 µM)	0.2 (≈ 0.544 µM)	0.78 (≈ 2.12 µM)	≤ 0.05	0.78 (≈ 2.12 µM)	CC(O)C1C(=O)N2C(C(=O)[O-])=C(SC3CCn4c[n+](C)cc43)SC12 (single isomer, unassigned) [B]
